PMC11243693, “Synthesis and Biological Evaluation of New Compounds with Nitroimidazole Moiety” (Molecules, 2024)
In brackets after ≈: the same amount, converted by molar mass. Read-outs that look alike come from different tables or passages of the source.

Columns and labels:
Type in all cases: cell-based
[1] = tested on: Candida parapsilosis ATCC 22019; experiment: Broth microdilution, C. parapsilosis ATCC 22019; conditions: Cp 22019
Method: (§1) The antibacterial activity of the obtained thiosemicarbazides and hydrazide–hydrazones was determined by evaluating their ability to inhibit microbial growth in vitro using the broth microdilution method, according to the guidelines of the European Committee on Antimicrobial Susceptibility Testing (EUCAST). The method involved the preparation of microbial suspensions with a standardized density of 0.5 on the McFarland scale (equivalent to 1.5 × 10^8 colony-forming units/mL for bacteria and […] for fungi). A solution of the test substances was then prepared (initial concentration 1000 µg/mL, diluted in sterile Mueller-Hinton broth for bacteria or Mueller-Hinton with 2% glucose for fungi). The test was carried out in 96-well polystyrene flat-bottom plates (Medlab, Poland) with 100 µL of appropriate sterile microbiological medium in each well. The first wells were filled with 200 µL of the test substance, diluted to the initial concentration, and then double-decreasing dilutions were made under aseptic conditions using an automatic pipette. The final step was the addition of a 10-fold diluted microbial suspension of 2 µL. At the same time, the following controls were included: (a) medium control (100 µL of sterile medium without microorganisms added), (b) microbial viability control, (c) test substance control (dilutions without added micro-organisms), (d) positive control of the drug used in the clinic. The plates thus prepared were incubated for 18 ± 2 h at 35 ± 2 °C under conditions optimal for the growth of the test microorganisms. After incubation, the spectrophotometric absorbance at 570 nm in each well of the plate was read. The aim of this part of the study was to determine two parameters: the minimum inhibitory concentration (MIC) and the minimum bactericidal or fungicidal concentration (MBC/MFC) of the test compound. […] The MBC value was determined by adding 5 µL of the contents of each well of the plate to solid sterile MHA or MHA + 2%glc medium for bacteria and fungi, respectively. The area on the plate where 99.9% inhibition of microbial growth was observed indicated the lethal concentration. In addition, the quotient MBC(MFC)/MIC could be determined to assess the nature of the activity of the test substance. If MBC(MFC)/MIC was <4, the test substance was bactericidal/fungicidal, whereas if MBC(MFC)/MIC was ≥4, it was bacteriostatic/fungistatic. Amoxicillin (Glentham Life Sciences, USA) and nystatin (Glentham Life Sciences, USA) were used as the controls for this assay.
(§2) The test was performed either on bacteria, comprising: Gram-positive (Staphylococcus aureus ATCC 25923, Staphylococcus aureus ATCC 6538, Staphylococcus aureus ATCC 43300 methicillin-resistant MRSA, Staphylococcus epidermidis ATCC 12228, Micrococcus luteus ATCC 10240, Bacillus subtilis ATCC 6633, Bacillus cereus ATCC 10876) and Gram-negative (Escherichia coli ATCC 25922, Pseudomonas aeruginosa ATCC 27853, Proteus mirabilis ATCC 12453, Klebsiella pneumoniae ATCC 13883) or yeast (Candida parapsilosis ATCC 22019, Candida glabrata ATCC 90030, Candida krusei ATCC 14243, Candida glabrata ATCC 15126, Candida tropicalis ATCC 1369, Candida auris CDC B11903, Candida lusitaniae ATCC 3449) reference strains from the American Type Culture Collection (ATCC) or the Centers for Disease Control and Prevention (CDC).

[2] = tested on: Candida glabrata ATCC 90030; experiment: Broth microdilution, C. glabrata ATCC 90030; conditions: Cg 90030
Method: as §1, §2

[3] = tested on: Candida krusei ATCC 14243; experiment: Broth microdilution, C. krusei ATCC 14243; conditions: Ck 14243
Method: as §1, §2

[4] = tested on: Candida glabrata ATCC 15126; experiment: Broth microdilution, C. glabrata ATCC 15126; conditions: Cg 15126
Method: as §1, §2

[5] = tested on: Candida tropicalis ATCC 1369; experiment: Broth microdilution, C. tropicalis ATCC 1369; conditions: Ct 1369
Method: as §1, §2

[6] = tested on: Candida auris CDC B11903; experiment: Broth microdilution, C. auris CDC B11903; conditions: Ca B11903
Method: as §1, §2

[7] = tested on: Candida lusitaniae ATCC 3449; experiment: Broth microdilution, C. lusitaniae ATCC 3449; conditions: Cl 3449
Method: as §1, §2

[8] = tested on: Staphylococcus aureus ATCC 25923; experiment: Broth microdilution, S. aureus ATCC 25923; conditions: Sa 25923
Method: as §1, §2

[9] = tested on: Staphylococcus aureus ATCC 6538; experiment: Broth microdilution, S. aureus ATCC 6538; conditions: Sa 6538
Method: as §1, §2

[10] = tested on: Staphylococcus aureus ATCC 43300 methicillin-resistant MRSA; experiment: Broth microdilution, S. aureus ATCC 43300 MRSA; conditions: Sa 43300 MRSA
Method: as §1, §2

[11] = tested on: Staphylococcus epidermidis ATCC 12228; experiment: Broth microdilution, S. epidermidis ATCC 12228; conditions: Se 12228
Method: as §1, §2

[12] = tested on: Micrococcus luteus ATCC 10240; experiment: Broth microdilution, M. luteus ATCC 10240; conditions: Ml 10240
Method: as §1, §2

[13] = tested on: Bacillus subtilis ATCC 6633; experiment: Broth microdilution, B. subtilis ATCC 6633; conditions: Bs 6633
Method: as §1, §2

[14] = tested on: Bacillus cereus ATCC 10876; experiment: Broth microdilution, B. cereus ATCC 10876; conditions: Bc 10876
Method: as §1, §2

[15] = Staphylococcus aureus, ATCC25923, read-out: MBC
[16] = Staphylococcus aureus, ATCC25923, read-out: MIC
[17] = Staphylococcus aureus, ATCC6538, read-out: MBC
[18] = Staphylococcus aureus, ATCC6538, read-out: MIC
[19] = Staphylococcus aureus, read-out: MBC
[20] = Staphylococcus aureus, read-out: MIC
[21] = Staphylococcus epidermidis, ATCC12228, read-out: MBC
[22] = Staphylococcus epidermidis, ATCC12228, read-out: MIC
[23] = Micrococcus luteus, ATCC10240, read-out: MBC
[24] = Micrococcus luteus, ATCC10240, read-out: MIC
[25] = Bacillus subtilis, ATCC6633, read-out: MBC
[26] = Bacillus subtilis, ATCC6633, read-out: MIC
[27] = Bacillus cereus, ATCC10876, read-out: MBC
[28] = Bacillus cereus, ATCC10876, read-out: MIC
[29] = <4 bactericidal, ≥4 bacteriostatic

MIC [8, 16] [µg/mL]	MIC [9, 18] [µg/mL]	MIC [10, 20] [µg/mL]	MIC [11, 22] [µg/mL]	MIC [12, 24] [µg/mL]	MIC [13, 26] [µg/mL]	Compound	MIC [1] [µg/mL]	MIC [2] [µg/mL]	MIC [3] [µg/mL]	MIC [4] [µg/mL]	MFC [5] [µg/mL]	MIC [5] [µg/mL]	MIC [6] [µg/mL]	MIC [7] [µg/mL]	MBC [8, 15] [µg/mL]	MBC [9, 17] [µg/mL]	MBC [10, 19] [µg/mL]	MBC [11, 21] [µg/mL]	MBC [12, 23] [µg/mL]	MBC [13, 25] [µg/mL]	other results
–	–	–	–	–	–	C[C@@H]1[C@H](O)[C@@H](C)/C=C/C=C/CC/C=C/C=C/C=C/C=C/C(O[C@H]2O[C@H](C)[C@@H](O)[C@H](N)[C@@H]2O)CC2O[C@](O)(CC(O)C(O)CCC(O)CC(O)CC(O)CC(=O)O[C@H]1C)CC(O)C2C(=O)O (stereo partly shown) [NYS, nystatin, reference compound]	12.5 (≈ 13.5 µM)	1.56 (≈ 1.68 µM)	12.5 (≈ 13.5 µM)	1.56 (≈ 1.68 µM)	0.5 (≈ 0.54 µM)	<0.781	6.25 (≈ 6.75 µM)	1.56 (≈ 1.68 µM)	–	–	–	–	–	–	MFC [1]: 12.5 µg/mL (≈ 13.5 µM); MFC [2]: 3.125 µg/mL (≈ 3.37 µM); MFC [3]: 12.5 µg/mL (≈ 13.5 µM); MFC [4]: 3.125 µg/mL (≈ 3.37 µM); MFC [6]: 15.625 µg/mL (≈ 16.9 µM); MFC [7]: 3.125 µg/mL (≈ 3.37 µM)
0.98 (≈ 2.68 µM)	0.98 (≈ 2.68 µM)	31.2 (≈ 85.5 µM)	0.98 (≈ 2.68 µM)	0.98 (≈ 2.68 µM)	125 (≈ 342 µM)	CC1(C)S[C@@H]2[C@H](NC(=O)[C@H](N)c3ccc(O)cc3)C(=O)N2[C@H]1C(=O)O [AMX, amoxicillin, reference compound]	–	–	–	–	–	–	–	–	0.98 (≈ 2.68 µM)	0.98 (≈ 2.68 µM)	31.2 (≈ 85.5 µM)	0.98 (≈ 2.68 µM)	0.98 (≈ 2.68 µM)	125 (≈ 342 µM)	MBC [14, 27]: 125 µg/mL (≈ 342 µM); MIC [14, 28]: 125 µg/mL (≈ 342 µM)
–	–	–	–	–	–	Cn1cc([N+](=O)[O-])nc1C(=O)NNC(=S)Nc1cccc(F)c1 [Compound 7]	>1000	>1000	>1000	>1000	>1000	250 (≈ 739 µM)	>1000	>1000	–	–	–	–	–	–	MBC [8]: >1000 µg/mL; MIC [8]: 250 µg/mL (≈ 739 µM); MBC [9]: >1000 µg/mL; MIC [9]: 500 µg/mL (≈ 1480 µM); MBC [10]: >1000 µg/mL; MIC [10]: 500 µg/mL (≈ 1480 µM); MBC [11]: >1000 µg/mL; MIC [11]: 250 µg/mL (≈ 739 µM); MBC [12]: 250 µg/mL (≈ 739 µM); MIC [12]: 250 µg/mL (≈ 739 µM); MBC/MIC Ratio [12, 29]: 1; MBC [13]: 250 µg/mL (≈ 739 µM); MIC [13]: 125 µg/mL (≈ 369 µM); MBC/MIC Ratio [13, 29]: 2; MBC [14]: 500 µg/mL (≈ 1480 µM); MIC [14]: 500 µg/mL (≈ 1480 µM); MBC/MIC Ratio [14, 29]: 1
125 (≈ 374 µM)	125 (≈ 374 µM)	125 (≈ 374 µM)	500 (≈ 1500 µM)	500 (≈ 1500 µM)	500 (≈ 1500 µM)	Cc1ccc(NC(=S)NNC(=O)c2nc([N+](=O)[O-])cn2C)cc1 [Compound 17, 1-[(1-methyl-4-nitroimidazol-2-yl)carbonyl]-4-(4-methylphenyl)thiosemicarbazide]	–	–	–	–	–	–	–	–	> 1000	125 (≈ 374 µM)	> 1000	> 1000	> 1000	> 1000	MBC/MIC Ratio [9, 29]: 1; MBC [14, 27]: > 1000 µg/mL; MIC [14, 28]: 62.5 µg/mL (≈ 187 µM); MIC ([1]; Lodderomyces parapsilosis, ATCC22019, read-out: MIC): > 1000 µg/mL; MIC ([2]; Nakaseomyces glabratus, ATCC90030, read-out: MIC): > 1000 µg/mL; MIC ([3]; Pichia kudriavzevii, ATCC14243, read-out: MIC): > 1000 µg/mL; MIC ([4]; Nakaseomyces glabratus, ATCC15126, read-out: MIC): > 1000 µg/mL; MFC ([5]; Candida tropicalis, ATCC1369, read-out: MFC): > 1000 µg/mL; MIC ([5]; Candida tropicalis, ATCC1369, read-out: MIC): 250 µg/mL (≈ 748 µM); MIC ([6]; Candidozyma auris, CDCB11903, read-out: MIC): > 1000 µg/mL; MIC ([7]; Clavispora lusitaniae, ATCC3449, read-out: MIC): > 1000 µg/mL
